Results reported in ChEMBL document CHEMBL5620395, “Development and therapeutic potential of allosteric retinoic acid receptor-related orphan receptor γt (RORγt) inverse agonists for autoimmune diseases” (Eur J Med Chem, 2023).

system: not listed separately; experiment: Inhibition of IL-17a mRNA level in […] at 10 uM incubated for 24 hrs by RT-PCR analysis; assay type: functional, cell-based; conditions: el4

| IC50 | SMILES |
| --- | --- |
| 0.11 µM | C[C@H](CCC(=O)NCCOCCOCCOCCOCCOCCOCCOCCOCCOCCOCCOCCOCCOCCOCCOCCNC(=O)c1ccc2c(-c3ccc(C(=O)O)cc3)nn(C(=O)c3c(Cl)cccc3C(F)(F)F)c2c1)[C@H]1CC[C@H]2[C@@H]3CC=C4C[C@@H](O)CC[C@]4(C)[C@H]3CC[C@]12C |

molecular target: T1, Peroxisome proliferator-activated receptor gamma (Homo sapiens, UniProt P37231); experiment: Inverse agonist activity at human his 6 tagged PPARgammaLBD incubated for 60 mins by TR-FRET assay; conditions: not given
T1 sequence (P37231 whole entry): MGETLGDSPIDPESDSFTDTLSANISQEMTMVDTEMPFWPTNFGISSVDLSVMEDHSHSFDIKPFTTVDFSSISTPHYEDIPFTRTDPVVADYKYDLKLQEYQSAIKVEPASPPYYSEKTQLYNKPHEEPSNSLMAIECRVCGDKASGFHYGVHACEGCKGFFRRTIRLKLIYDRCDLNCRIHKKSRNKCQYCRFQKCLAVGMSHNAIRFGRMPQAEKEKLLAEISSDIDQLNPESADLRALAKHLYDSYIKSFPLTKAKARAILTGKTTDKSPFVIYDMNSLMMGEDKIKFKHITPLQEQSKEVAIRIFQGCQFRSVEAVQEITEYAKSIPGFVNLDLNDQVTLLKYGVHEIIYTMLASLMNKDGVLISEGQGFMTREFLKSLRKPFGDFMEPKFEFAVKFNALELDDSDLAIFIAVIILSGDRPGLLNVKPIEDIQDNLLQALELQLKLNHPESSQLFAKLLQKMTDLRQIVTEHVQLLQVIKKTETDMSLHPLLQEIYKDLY

| IC50 | SMILES |
| --- | --- |
| > 100 µM | C[C@H](CCC(=O)NCCOCCOCCOCCOCCOCCOCCOCCOCCOCCOCCOCCOCCOCCOCCOCCNC(=O)c1ccc2c(-c3ccc(C(=O)O)cc3)nn(C(=O)c3c(Cl)cccc3C(F)(F)F)c2c1)[C@H]1CC[C@H]2[C@@H]3CC=C4C[C@@H](O)CC[C@]4(C)[C@H]3CC[C@]12C |

molecular target: T2, Nuclear receptor ROR-gamma (Homo sapiens, UniProt P51449); experiment: Inhibition of RORgamma (unknown origin) incubated for 1 hr by TR-FRET method; conditions: not given
T2 sequence (P51449 whole entry): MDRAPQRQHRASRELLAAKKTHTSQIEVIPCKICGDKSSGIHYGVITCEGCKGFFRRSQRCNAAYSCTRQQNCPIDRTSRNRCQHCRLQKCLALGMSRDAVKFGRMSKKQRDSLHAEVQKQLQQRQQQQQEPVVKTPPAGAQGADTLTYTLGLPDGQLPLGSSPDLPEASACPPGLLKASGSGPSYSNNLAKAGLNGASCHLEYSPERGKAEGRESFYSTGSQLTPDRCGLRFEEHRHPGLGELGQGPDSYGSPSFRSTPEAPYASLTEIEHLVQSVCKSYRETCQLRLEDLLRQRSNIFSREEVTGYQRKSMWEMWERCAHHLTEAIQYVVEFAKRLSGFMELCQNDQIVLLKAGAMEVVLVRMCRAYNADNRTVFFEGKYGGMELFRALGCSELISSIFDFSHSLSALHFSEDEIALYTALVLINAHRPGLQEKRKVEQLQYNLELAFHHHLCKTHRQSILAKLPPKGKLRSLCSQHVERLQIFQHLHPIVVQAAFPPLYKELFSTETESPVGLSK

| SMILES | IC50 |
| --- | --- |
| Cc1cc2c(s1)c(-c1ccc(C(=O)O)cc1F)nn2C(=O)c1c(Cl)cccc1Cl | < 0.05 µM |
| Cc1cc2c(s1)c(-c1ccc(C(=O)O)c(F)c1)nn2C(=O)c1c(F)cccc1C(F)(F)F | < 0.05 µM |
| CN(C)C(=O)c1cc2c(s1)c(-c1ccc(C(=O)O)cc1F)nn2C(=O)c1c(F)cccc1C(F)(F)F | < 0.05 µM |

Results, then the compound that gave them:

| IC50 | SMILES |
| --- | --- |
| < 0.05 µM | Cc1cc2c(s1)c(-c1ccc(C(=O)O)cc1F)nn2C(=O)c1c(Cl)cccc1C(F)(F)F |
| < 0.05 µM | Cc1cc2c(s1)c(-c1ccc(C(=O)O)cc1)nn2C(=O)c1c(Cl)cccc1C(F)(F)F |
| < 0.05 µM | Cc1cc2c(s1)c(-c1ccc(C(=O)O)cc1)nn2C(=O)c1c(C)cccc1Cl |
| < 0.05 µM | Cc1cc2c(s1)c(-c1ccc(C(=O)O)cc1F)nn2C(=O)c1c(F)cccc1C(F)(F)F |
| < 0.05 µM | Cc1cc2c(s1)c(-c1ccc(C(=O)O)cc1)nn2C(=O)c1c(Cl)cccc1Br |
